Laboratory results as given in patent US20250197393A1, “INTEGRIN INHIBITOR AND USES THEREOF” (Pliant Therapeutics, Inc., priority 2023, published 2025).

Columns and labels:
Format in all cases: physicochemical
Dry grinding = conditions: ground manually with mortar and pestle for 3 min
Description: About 20 mg of (S)-4-((2-methoxyethyl)(4-(5,6,7,8-tetrahydro-1,8-naphthyridin-2-yl)butyl)amino)-2-(quinazolin-4-ylamino)butanoic acid L-tartaric acid cocrystal Pattern A was ground manually with a mortar and a pestle for 3 min. Potential form change and degree of crystallinity were evaluated by XRPD.

[1] = VT-XRPD heating experiment; conditions: heated to 110° C. under dry nitrogen flow for about 30 min, then cooled to ambient (20-26° C., 20%-35% RH)
Description: The dried(S)-4-((2-methoxyethyl)(4-(5,6,7,8-tetrahydro-1,8-naphthyridin-2-yl)butyl)amino)-2-(quinazolin-4-ylamino)butanoic acid L-tartaric acid cocrystal Pattern A was also investigated by VT-XRPD experiments. The(S)-4-((2-methoxyethyl)(4-(5,6,7,8-tetrahydro-1,8-naphthyridin-2-yl)butyl)amino)-2-(quinazolin-4-ylamino)butanoic acid L-tartaric acid cocrystal Pattern A was heated to 110° C. under dry nitrogen flow for about 30 min and then cooled to ambient condition (20-26° C., 20%-35% RH). The obtained solid parts were investigated by XRPD.

[2] = Bulk stability of solid under temperature/humidity stress (HPLC, appearance, XRPD); conditions: for purity decrease: listed as L-tartaric acid cocrystal Pattern A; for Bulk (XRPD) / Bulk (HPLC) purity, 316 nm: Solid state
Description: Bulk stability of (S)-4-((2-methoxyethyl)(4-(5,6,7,8-tetrahydro-1,8-naphthyridin-2-yl)butyl)amino)-2-(quinazolin-4-ylamino)butanoic acid L-tartaric acid cocrystal Pattern A was evaluated at 25° C./92.5% RH in an open container, at 40° C./75% RH in an open container, and at 60° C. in a closed container over 1 week and 4 weeks.
However, it became deliquescent after being stressed at 25° C./92.5% RH in an open container and at 40° C./75% RH in an open container after 1 week.

[3] = 40° C./75% RH, open container, 4 weeks
[4] = 60° C., closed container, 4 weeks, listed as L-Tartaric acid cocrystal Pattern A, hydrate

- degree of crystallinity after dry grinding (XRPD) (Dry grinding): no obvious change in crystallinity
- form change after dry grinding (XRPD) (Dry grinding): No form change
- XRPD after heating (VT-XRPD) [1]: no form change
- purity decrease ([2]; 25° C./92.5% RH in an open container, 4 weeks): 0.9%
- physical form after stress ([2]; 25° C./92.5% RH open, 40° C./75% RH open and 60° C. closed container, four weeks): remained the same form
- physical stability ([2]; 25° C./92.5% RH open, 40° C./75% RH open and 60° C. closed container, over 4 weeks): physically stable
- purity decrease ([2]; 60° C. in a closed container, 4 weeks): 0.9%
- Bulk (XRPD) ([2]; 25° C./92.5% RH, open container, 1 week): No form change
- Bulk (HPLC) purity, 316 nm ([2]; 25° C./92.5% RH, open container, 1 week, listed as L-Tartaric acid cocrystal Pattern A, hydrate): 99.2%
- Bulk (XRPD) ([2]; 25° C./92.5% RH, open container, 4 weeks): No form change
- Bulk (HPLC) purity, 316 nm ([2]; 25° C./92.5% RH, open container, 4 weeks, listed as L-Tartaric acid cocrystal Pattern A, hydrate): 98.5%
- Bulk (XRPD) ([2]; 40° C./75% RH, open container, 1 week): No form change
- Bulk (HPLC) purity, 316 nm ([2]; 40° C./75% RH, open container, 1 week, listed as L-Tartaric acid cocrystal Pattern A, hydrate): 98.9%
- Bulk (HPLC) purity, 316 nm [2, 3]: 97.3%
- Bulk (XRPD) [2, 3]: No form change
- Bulk (XRPD) ([2]; 60° C., closed container, 1 week): No form change
- Bulk (HPLC) purity, 316 nm ([2]; 60° C., closed container, 1 week, listed as L-Tartaric acid cocrystal Pattern A, hydrate): 99.1%
- Bulk (HPLC) purity, 316 nm [2, 4]: 98.5%
- Bulk (XRPD) [2, 4]: No form change
- stability under stress conditions ([2]; open container, 25° C. and 92.5% relative humidity and 40° C. and 75% RH, up to four weeks): stable
- bulk stability relative to the phosphate salt ([2]; various temperatures and relative humidities (BS1, BS2, BS3)): higher stability
SMILES: COCCN(CCCCc1ccc2c(n1)NCCC2)CC[C@H](Nc1ncnc2ccccc12)C(=O)O [Pattern A, (S)-4-((2-methoxyethyl)(4-(5,6,7,8-tetrahydro-1,8-naphthyridin-2-yl)butyl)amino)-2-(quinazolin-4-ylamino)butanoic acid]
